From patent publication US20160169850A1, “SENSOR MOLECULE” (University of Malta, priority 2014, published 2016)
Like-named read-outs stand apart in the source and are kept apart here.

Assays:
[1] = CH3CN; known sensor; cited from earlier work
[2] = CH3CN; known sensor; cited from earlier work; remark: listed apart in the source
[3] = for Fluorescent Output: 1:1 MeOH:H2O
[4] = 1:1 methanol:water, excess H^+ (pH 3), emission at 525 nm

Row | Compound | Fluorescent Enhancement (FE) [1] | Quantum Yield (ΦF) [2] | visual output under UV lamp ([3]; 365 nm light, high acid and Fe(III), 1:1 methanol/water) | Fluorescent Output ([3]; Condition A: no inputs) | Fluorescent Output ([3]; Condition D: Fe(III) and H^+ both) | fluorescence enhancement ([3]; both inputs versus no input or one input, 1:1 methanol:water) [fold] | Output emission, logic level (Condition A: H^+ low, Fe^3+ low) | Output emission, logic level (Condition B: 0.2 mM H^+, Fe^3+ low) | Output emission, logic level (Condition C: H^+ low, 10 μM Fe(III)) | Output emission, logic level (Condition D: 0.2 mM H^+ and 10 μM Fe(III)) | −log [Fe^3+] at equivalence point [4]
1 | CN(CC1=CSC(=C2SC=CS2)S1)Cc1c2ccccc2cc2ccccc12 [Compound 2] | 5 | 0.015 |  |  |  |  |  |  |  |  | 
2 | N-ferrocenyl-4-methylpiperazine-1,8-naphthalimide [Compound 5] |  |  | bright green fluorescent | Low | High | 19 | low (Output is considered high when >0.050) | low (Output is considered high when >0.050) | low (Output is considered high when >0.050) | high (Output is considered high when >0.050) | 5.1
